According to the NIST ThermoML archive (doi:10.1021/je020163y):
Numbers after ± are expanded uncertainties.

Conditions: Crystal; visual observation

Normal melting temperature [°C]	Structure (SMILES)
149 ± 1	Cc1cc(O)c2c(=O)c3ccccc3sc2c1 [1-hydroxy3-methylthioxanthone]
209 ± 2	O=c1c2ccccc2sc2ccccc12 [thioxanthone]
240 ± 4	Cc1cc(O)c2c(=O)c3ccccc3sc2c1O [1,4-dihydroxy-3-methylthioxanthone]
119 ± 1	O=c1c2ccccc2sc2cccc(O)c12 [1-hydroxythioxanthone]
